Among the test systems are HS 578T breast; OVCAR-3 ovarian; KM12 colon; RXF 393 renal; M19-MEL melanoma; SR leukemia; SF-268 CNS; M14 melanoma; UO-31 renal.
Assay in all cases: inhibition of tumour cell growth, NCI panel, 48 h

Each structure is given as a SMILES string. Where “and” joins values, the source holds several entries; their conditions need not be identical. Equal values may be shown once.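 A five-concentration, 48-hour dose response in 96-well plates underlies each endpoint, interpolated linearly between surrounding concentrations. At the GI50, growth is halved. TGI: concentration producing complete growth inhibition.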

The source of these data is PubChem BioAssay (NCI).

Regarding `CC[C@@H](C)[C@H]([C@H](CC(=O)N1CCC[C@@H]1[C@@H](OC)[C@H](C)C(=O)N[C@H](Cc1ccccc1)c1nccs1)OC)N(C)C(=O)[C@H](NC(=O)[C@@H](C(C)C)N(C)C)C(C)C`, the GI50 was 0.0695 nM in the assay on HS 578T breast, 0.000425 µM in the assay with KM12 colon, 0.0179 µM in the assay with RXF 393 renal and 0.000425 µM in the assay with M19-MEL melanoma. Besides, the TGI with HS 578T breast is 4.06 µM; in the assay on OVCAR-3 ovarian it was 0.000158 µM and < 0.087 µM.

As for `CCCCN(CCCC)CC(C)(C)C(O)c1ccc(OC)c2ccccc12` (stereo not drawn), the GI50 with HS 578T breast is 4550 nM; in the assay on SR leukemia, 2.89 µM; in the assay on OVCAR-3 ovarian, 2.84 µM; in the assay on KM12 colon it was 3.31 µM; with RXF 393 renal, 1.5 µM; with SF-268 CNS it was 12.6 µM. Besides, the GI50 in the assay on M14 melanoma was 4.21 µM; with UO-31 renal, 3.02 µM. Also, the TGI in the assay with HS 578T breast amounted to 27 µM; with SR leukemia, 8.34 µM; in the assay with OVCAR-3 ovarian, 13.9 µM; with KM12 colon, 16.5 µM; in the assay with RXF 393 renal, 4.51 µM; with SF-268 CNS, 38.3 µM. For the same molecule, the TGI with M14 melanoma was 17.7 µM; with UO-31 renal it was 17.4 µM.

`CC1CCC2C(C)C3C(CC4C5CC=C6CC(OC7OC(CO)C(O)C(OC8OC(CO)C(O)C(O)C8O)C7OC7OC(C)C(O)C(O)C7O)CCC6(C)C5CCC43C)N2C1` (stereo not drawn): the GI50 in the assay on HS 578T breast, with SR leukemia, in the assay with OVCAR-3 ovarian, in the assay on KM12 colon, in the assay with RXF 393 renal and with SF-268 CNS was above 2.5 µg/mL throughout. Besides, the GI50 in the assay with M14 melanoma and with UO-31 renal was above 2.5 µg/mL throughout. The TGI in the assay with HS 578T breast is 32.6 µM and > 2.5 µg/mL; in the assay with SR leukemia it was 29 µM and > 2.5 µg/mL; in the assay with OVCAR-3 ovarian, 31.7 µM and > 2.5 µg/mL; in the assay on KM12 colon, 28.3 µM and > 2.5 µg/mL; in the assay with RXF 393 renal, 22.3 µM and > 2.5 µg/mL; in the assay with SF-268 CNS it was 34.1 µM and > 2.5 µg/mL. In addition, the TGI in the assay with M14 melanoma is 9.84 µM and > 2.5 µg/mL; in the assay on UO-31 renal, 14.5 µM and > 2.5 µg/mL.

As for `COc1ccc(C2C(c3ccccc3)C(=O)N2c2cc(OC)c(OC)c(OC)c2)cc1I` (stereo not drawn), the GI50 in the assay with HS 578T breast is 435 nM; with SR leukemia it was 0.286 µM; in the assay on OVCAR-3 ovarian, 0.28 µM; with KM12 colon, 0.343 µM; in the assay on RXF 393 renal it was 0.324 µM; in the assay with SF-268 CNS, 0.712 µM. Further, the GI50 in the assay on M14 melanoma was 0.301 µM; with UO-31 renal, 0.693 µM. Also, the TGI in the assay with HS 578T breast was above 100 µM; in the assay on SR leukemia, above 100 µM; in the assay on OVCAR-3 ovarian, 0.802 µM; with KM12 colon, above 100 µM; with RXF 393 renal, above 100 µM; with SF-268 CNS, above 100 µM. The TGI in the assay on M14 melanoma and in the assay on UO-31 renal was above 100 µM in each case.

For the molecule `O=C(O)c1ccc(-c2ccc(C(=O)O)cc2I)c(I)c1`, the GI50 is above 100000 nM in the assay with HS 578T breast; above 100 µM with SR leukemia; above 100 µM in the assay on OVCAR-3 ovarian; above 100 µM in the assay with KM12 colon; above 100 µM in the assay on RXF 393 renal; above 100 µM with SF-268 CNS. Besides, the GI50 in the assay on M14 melanoma and in the assay on UO-31 renal was above 100 µM each time. Also, the TGI in the assay on HS 578T breast, with SR leukemia, with OVCAR-3 ovarian, in the assay on KM12 colon, in the assay with RXF 393 renal and in the assay with SF-268 CNS was above 100 µM throughout. The TGI in the assay with M14 melanoma and in the assay on UO-31 renal was above 100 µM in each case.

Regarding `O=C(NCCN1CCOCC1)Nc1ccc(-c2cc3c(Nc4ccc(Oc5cccc(C(F)(F)F)c5)c(Cl)c4)ncnc3s2)cc1`, the GI50 is 1160 nM in the assay with HS 578T breast; 1.47 µM with SR leukemia; 2.34 µM in the assay with OVCAR-3 ovarian; 1.02 µM with KM12 colon; 0.653 µM in the assay on RXF 393 renal; 1.76 µM in the assay with SF-268 CNS. Moreover, the GI50 was 1.16 µM with M14 melanoma and 0.801 µM in the assay on UO-31 renal. Moreover, the TGI in the assay on HS 578T breast was found to be 3.84 µM; in the assay on SR leukemia, 27.6 µM; in the assay with OVCAR-3 ovarian, 8.54 µM; in the assay with KM12 colon, 2.12 µM; in the assay with RXF 393 renal, 2.55 µM; in the assay with SF-268 CNS, 7.51 µM. In addition, the TGI was 3.24 µM with M14 melanoma and 1.75 µM in the assay on UO-31 renal.

As for `CCN(Cc1nc2cc(C(F)(F)F)ccc2nc1-c1ccccc1)c1ccc(OC)c(OC)c1`, the GI50 with HS 578T breast is 11400 nM; in the assay with SR leukemia, 7.61 µM; in the assay on OVCAR-3 ovarian, 13.1 µM; with KM12 colon it was 19.9 µM; in the assay with RXF 393 renal it was 0.312 µM; in the assay on SF-268 CNS, 26.1 µM. The values for the GI50 in the assay with M14 melanoma and with UO-31 renal were 15.4 µM and 19.8 µM, respectively. Moreover, the TGI in the assay with HS 578T breast is 30 µM; in the assay on SR leukemia, 31.2 µM; in the assay with OVCAR-3 ovarian, 26.5 µM; in the assay with KM12 colon, 43.6 µM; in the assay on RXF 393 renal it was 9.09 µM; in the assay on SF-268 CNS it was above 100 µM. Also, the TGI with M14 melanoma amounted to 29.5 µM; with UO-31 renal, 46.2 µM.

For the molecule `CCn1c(-c2nonc2N)nc2c(C#CC(C)(C)O)nc(O[C@@H](CN)c3ccccc3)cc21`, the GI50 was 45.3 nM in the assay with HS 578T breast; 0.099 µM in the assay on SR leukemia; 0.0845 µM in the assay on OVCAR-3 ovarian; 0.0578 µM in the assay on KM12 colon; 0.0338 µM in the assay on RXF 393 renal; 0.574 µM in the assay with SF-268 CNS. Moreover, the GI50 with M14 melanoma is 0.407 µM; in the assay on UO-31 renal it was 3.52 µM. The TGI was 1.09 µM with HS 578T breast; 3.59 µM with SR leukemia; 0.314 µM in the assay with OVCAR-3 ovarian; 1.51 µM in the assay on KM12 colon; 0.394 µM with RXF 393 renal; 1.98 µM in the assay with SF-268 CNS. The TGI is 1.67 µM with M14 melanoma and 7.37 µM in the assay on UO-31 renal.

For the molecule `CCCC[P+](c1ccccc1)(c1ccccc1)c1ccccc1`, the GI50 in the assay on HS 578T breast was 3380 nM; with SR leukemia it was 1.96 µM; with OVCAR-3 ovarian it was 1.13 µM; in the assay on KM12 colon it was 0.944 µM; in the assay with RXF 393 renal it was 18.5 µM; in the assay with SF-268 CNS it was 5.66 µM. In addition, the GI50 in the assay on M14 melanoma was 6.79 µM; in the assay with UO-31 renal, 24.2 µM. Also, the TGI is 20.7 µM in the assay on HS 578T breast; above 100 µM in the assay with SR leukemia; 23.3 µM in the assay on OVCAR-3 ovarian; 66.3 µM with KM12 colon; above 100 µM with RXF 393 renal; above 100 µM with SF-268 CNS. The TGI in the assay on M14 melanoma and with UO-31 renal was above 100 µM each time.

As to `COC(=O)[C@@H](Cc1c[nH]c2ccccc12)NC(=O)/C=C/c1ccccc1`, the GI50 was 1810 nM with HS 578T breast; 2.98 µM with SR leukemia; 2.83 µM with OVCAR-3 ovarian; 4.13 µM in the assay on KM12 colon; 1.5 µM in the assay with RXF 393 renal; 4.52 µM in the assay with SF-268 CNS. Besides, the GI50 in the assay on M14 melanoma was 3.05 µM; in the assay on UO-31 renal it was 3.68 µM. For the same molecule, the TGI in the assay with HS 578T breast was 7.88 µM; with SR leukemia, 11.6 µM; in the assay on OVCAR-3 ovarian, 7.78 µM; in the assay on KM12 colon, 33.5 µM; in the assay on RXF 393 renal, 4.58 µM; with SF-268 CNS, above 100 µM. Also, the TGI with M14 melanoma and with UO-31 renal was above 100 µM in each case.

For `O=C(NCCCNC(=O)OCc1ccc2c(Br)cc(Br)c(O)c2n1)OCc1ccc2c(Br)cc(Br)c(O)c2n1`, the GI50 was above 100000 nM in the assay on HS 578T breast; above 100 µM with SR leukemia; above 100 µM in the assay on OVCAR-3 ovarian; above 100 µM with KM12 colon; above 100 µM with RXF 393 renal; above 100 µM in the assay on SF-268 CNS. The GI50 with M14 melanoma and in the assay on UO-31 renal was above 100 µM each time. Moreover, the TGI in the assay on HS 578T breast, in the assay with SR leukemia, in the assay on OVCAR-3 ovarian, in the assay with KM12 colon, in the assay on RXF 393 renal and with SF-268 CNS was above 100 µM throughout. The TGI in the assay on M14 melanoma and in the assay on UO-31 renal was above 100 µM each time.

For `O=C(O)C(Br)C(Br)c1ccccc1[N+](=O)[O-]` (stereo not drawn), the TGI in the assay on HS 578T breast, in the assay with SR leukemia, in the assay on OVCAR-3 ovarian, in the assay on KM12 colon, in the assay with RXF 393 renal and in the assay on SF-268 CNS was above 100 µM throughout. Besides, the TGI in the assay on M14 melanoma was above 100 µM; with UO-31 renal, 94.9 µM.

Take `O=C(O)c1ccc(S(=O)(=O)N=Nc2c(O)[nH]c3ccccc23)cc1`: the TGI with HS 578T breast, in the assay with SR leukemia, in the assay on OVCAR-3 ovarian, with KM12 colon, in the assay with RXF 393 renal and in the assay with SF-268 CNS was above 100 µM each time. The TGI in the assay on M14 melanoma and with UO-31 renal was above 100 µM each time.

On to `CCCCCCNC(=O)Oc1ccc(/C(=C(\C)c2ccccc2)c2ccc(OCCN3CCCCC3)cc2)cc1`, for which the GI50 was 2710 nM in the assay on HS 578T breast; 1.73 µM with SR leukemia; 1.97 µM with OVCAR-3 ovarian; 2.61 µM with KM12 colon; 1.52 µM in the assay on RXF 393 renal; 4.26 µM in the assay with SF-268 CNS. For the same molecule, the GI50 in the assay with M14 melanoma is 1.98 µM; in the assay with UO-31 renal, 1.38 µM. In addition, the TGI in the assay with HS 578T breast was 13.4 µM; in the assay on SR leukemia it was 4.39 µM; in the assay on OVCAR-3 ovarian, 4.82 µM; in the assay on KM12 colon it was 7.63 µM; in the assay on RXF 393 renal it was 3.32 µM; with SF-268 CNS, 20.2 µM. In addition, the TGI is 3.97 µM in the assay with M14 melanoma and 2.86 µM with UO-31 renal.
